The target in one assay is T1, HER2 INS YVMA (Homo sapiens, UniProt P04626, INS775YVMA).
T1 construct: purchased DPF
As to the kind of experiment: Lance Kinase Activity Assay, HER2 INS YVMA (Her2 Exon 20 INSYVMA Lance). The format is biochemical. The note with it: biochemical Lance assay. On the procedure:
1. Measurement of HER2 INS YVMA Kinase Activity
This protocol describes how the Lance Kinase Activity Assay was performed to determine IC50 values of compounds of general formula (I) against HER2 INS YVMA. The principle behind this enzymatic assay is based upon the phosphorylation of the Ulight-peptide substrate. It is detected by using a specific EU-labeled anti-phospho peptide antibody. The binding of the Eu labeled anti-phospho peptide antibody to the phosphorylated ULight labeled peptide gives rise to a FRET-signal.
Binding of an inhibitor to the kinase prevents phosphorylation of the Ulight-substrate, resulting in a loss of FRET. In table 2 is summarized the relevant information for the LANCE assay.
The compounds of general formula (I) summarized in Table 3 were serial diluted from a 10 mM DMSO stock solution 1:3 over 8 steps in a total volume of 20 μl.
For every sample, 8 μl of kinase-substrate mix was transferred into a suitable assay plate (e.g. Corning #3673). Compound was added via pintool transfer (10 nl/well) using a Biomek FX robot (BeckmanCoulter). Reaction was started by addition of 2 μl ATP working solution and mixed using variomag teleshaker (Thermo Fischer Scientific). After 1 h incubation at room temperature the reaction was stopped with 10 μl detection mix containing the Eu-labeled phosphospecific antibody and 10 mM EDTA. After a second incubation period of 1 h at room temperature the FRET signal was measured at 340 nm excitation, 665 nm and 615 nm emission (for the ULight-substrate and Eu-AB, respectively) with an Envision spectrophotometer (Perkin Elmer, Waltham, Mass., USA) with 50 μs delay and 300 μs integration time. IC50 values were determined from the sigmoidal dose response curves with the software Quattro Workflow (Quattro GmbH, Munich, Germany).

The target of a further assay is EGFR wt (Homo sapiens, UniProt P00533). As to the kind of experiment: EGFR wt Lance assay. It counts as biochemical. On the procedure:
(§1) Inhibition is indicated as […] [nM] (“−”=not measured). Compounds having an activity designated as “A” provided an IC50≤100 nM; compounds having an activity designated as “B” provided an 100 nM<IC50≤500 nM; compounds having an activity designated as “C” provided an 500 nM<IC50≤1000 nM; compounds having an activity designated as “D” provided an 1000 nM<IC50≤100000 nM; and compounds having an activity designated as “E” provided an IC50>10000 nM.

Assay [1] concerns the target EGFR Exon 20 INSNPH Ba/F3 (Homo sapiens, UniProt P00533, DUP771-773, cells depend on it). Description: EGFR Exon 20 INSNPH Ba/F3 CellTiter-Glo. The format is cell-based. The note with it: CellTiter-Glo, 72 h, read-out: EGFR Exon 20 INSNPH Ba/F3 CTG IC50. Here is the method:
(§2) 2. Measurement of Cellular Activity
(§3) The CellTiter-Glo Luminescent Cell Viability Assay (Promega) is a homogeneous method of determining the number of viable cells in culture. It is based on quantification of ATP, indicating the presence of metabolically active cells. Cells are seeded on day 1 at cell numbers that assure assay linearity and optimal signal intensity. After incubation for 24 h in humidified chambers at 37° C. and 5% CO2, compounds in DMSO are added at different concentrations. Cells are further incubated for 72 h at 37° C. and 5% CO2. Cells treated with the compound vehicle DMSO are used as positive controls and cells treated with 10 μM Staurosporine serve as negative controls. At day 5 the CellTiter Glo Reagent is prepared according to the instructions of the kit (Promega Inc.): Reagent is mixed 1:1 with cell culture medium. Thereon, mixture and assay plates are equilibrated at room temperature for 20 min. Equal volumes of the reagent-medium-mixture is added to the volume of culture medium present in each well. The plates are mixed at ˜200 rpm for 2 minutes on an orbital shaker. The microplates are then incubated at room temperature for 10 minutes for stabilization of the luminescent signal. Following incubation the luminescence is recorded on a Victor microplate reader (Perkin Elmer) using a 200 ms integration time. The data is then analyzed with Excel using the XLFIT Plugin (dose response Fit 205) for IC50-determination. As quality control the Z′-factor is calculated from 16 positive and negative control values. Only assay results showing a Z′-factor ≥0.5 are used for further analysis.
(§4) Inhibition is indicated as IC50 [nM] (“−”=not measured). Compounds having an activity designated as “A” provided an IC50≤100 nM; compounds having an activity designated as “B” provided an 100 nM<IC50≤500 nM; compounds having an activity designated as “C” provided an 500 nM<IC50≤1000 nM; compounds having an activity designated as “D” provided an 1000 nM<IC50≤10000 nM; and compounds having an activity designated as “E” provided an IC50>10000 nM.
On the technique in general: In ATP-based viability assays light output follows the ATP content of the culture.

The target of another assay is EGFR T790ML858R (Homo sapiens, UniProt P00533, L858R/T790M). Description: EGFR T790ML858R Lance assay. It counts as biochemical. On the procedure:
as §1

Assay [2] deals with Her2 Exon 20 INSYVMA Ba/F3 (Homo sapiens, UniProt P04626, DUP772-775, cells depend on it). As to the kind of experiment: Her2 Exon 20 INSYVMA Ba/F3 CellTiter-Glo. It counts as cell-based. The note with it: CellTiter-Glo, 72 h, read-out: Her2 Exon 20 INSYVMA Ba/F3 CTG IC50. Here is the method: as §2, §3, §4
The next assay relates to A431. As to the kind of experiment: A431 CellTiter-Glo. The format is cell-based. The note with it: Homo sapiens, A-431; 72 h compound incubation; read-out: A431 CTG IC50. On the procedure:
as §2, §3, §1

Another assay deals with H1975. Description: H1975 CellTiter-Glo. The format is cell-based. The note with it: Homo sapiens, NCI-H1975; 72 h compound incubation; read-out: H1975 CTG IC50. Here is the method:
as §2, §3, §1

SMILES strings stand for the structures.

Sequence of EGFR Exon 20 INSNPH Ba/F3 (P00533 with tags, fused parts or gaps DUP771-773): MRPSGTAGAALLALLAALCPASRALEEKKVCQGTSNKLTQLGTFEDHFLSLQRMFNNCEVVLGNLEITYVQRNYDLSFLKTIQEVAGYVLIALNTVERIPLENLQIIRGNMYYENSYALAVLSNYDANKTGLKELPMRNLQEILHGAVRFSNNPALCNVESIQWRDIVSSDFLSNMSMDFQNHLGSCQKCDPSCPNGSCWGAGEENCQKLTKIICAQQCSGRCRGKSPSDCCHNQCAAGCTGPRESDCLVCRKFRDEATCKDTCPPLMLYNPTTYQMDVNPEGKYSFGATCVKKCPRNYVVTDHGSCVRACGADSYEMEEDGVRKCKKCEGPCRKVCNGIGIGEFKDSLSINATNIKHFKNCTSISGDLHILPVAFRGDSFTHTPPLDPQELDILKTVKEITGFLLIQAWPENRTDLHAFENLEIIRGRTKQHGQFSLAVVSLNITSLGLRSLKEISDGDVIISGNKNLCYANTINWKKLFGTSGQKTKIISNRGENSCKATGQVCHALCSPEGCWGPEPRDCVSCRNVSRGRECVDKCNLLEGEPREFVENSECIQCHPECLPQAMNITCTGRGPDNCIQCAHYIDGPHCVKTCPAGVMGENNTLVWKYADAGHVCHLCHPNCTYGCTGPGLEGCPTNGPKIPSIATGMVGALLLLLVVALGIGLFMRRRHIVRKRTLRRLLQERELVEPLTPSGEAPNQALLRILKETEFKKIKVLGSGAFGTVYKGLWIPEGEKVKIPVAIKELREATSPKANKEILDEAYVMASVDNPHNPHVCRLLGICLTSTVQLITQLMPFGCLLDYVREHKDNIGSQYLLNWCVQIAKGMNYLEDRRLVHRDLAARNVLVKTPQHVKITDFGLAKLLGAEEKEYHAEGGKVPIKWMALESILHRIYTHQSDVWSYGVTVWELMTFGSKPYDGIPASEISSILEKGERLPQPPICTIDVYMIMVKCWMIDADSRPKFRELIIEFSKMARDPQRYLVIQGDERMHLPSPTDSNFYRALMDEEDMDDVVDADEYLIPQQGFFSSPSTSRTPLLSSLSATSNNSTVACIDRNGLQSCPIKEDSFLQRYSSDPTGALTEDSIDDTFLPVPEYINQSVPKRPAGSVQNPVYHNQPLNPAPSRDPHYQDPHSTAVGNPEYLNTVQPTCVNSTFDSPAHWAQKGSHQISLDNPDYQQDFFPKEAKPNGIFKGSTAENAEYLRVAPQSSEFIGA
Sequence of Her2 Exon 20 INSYVMA Ba/F3 (P04626 with tags, fused parts or gaps DUP772-775): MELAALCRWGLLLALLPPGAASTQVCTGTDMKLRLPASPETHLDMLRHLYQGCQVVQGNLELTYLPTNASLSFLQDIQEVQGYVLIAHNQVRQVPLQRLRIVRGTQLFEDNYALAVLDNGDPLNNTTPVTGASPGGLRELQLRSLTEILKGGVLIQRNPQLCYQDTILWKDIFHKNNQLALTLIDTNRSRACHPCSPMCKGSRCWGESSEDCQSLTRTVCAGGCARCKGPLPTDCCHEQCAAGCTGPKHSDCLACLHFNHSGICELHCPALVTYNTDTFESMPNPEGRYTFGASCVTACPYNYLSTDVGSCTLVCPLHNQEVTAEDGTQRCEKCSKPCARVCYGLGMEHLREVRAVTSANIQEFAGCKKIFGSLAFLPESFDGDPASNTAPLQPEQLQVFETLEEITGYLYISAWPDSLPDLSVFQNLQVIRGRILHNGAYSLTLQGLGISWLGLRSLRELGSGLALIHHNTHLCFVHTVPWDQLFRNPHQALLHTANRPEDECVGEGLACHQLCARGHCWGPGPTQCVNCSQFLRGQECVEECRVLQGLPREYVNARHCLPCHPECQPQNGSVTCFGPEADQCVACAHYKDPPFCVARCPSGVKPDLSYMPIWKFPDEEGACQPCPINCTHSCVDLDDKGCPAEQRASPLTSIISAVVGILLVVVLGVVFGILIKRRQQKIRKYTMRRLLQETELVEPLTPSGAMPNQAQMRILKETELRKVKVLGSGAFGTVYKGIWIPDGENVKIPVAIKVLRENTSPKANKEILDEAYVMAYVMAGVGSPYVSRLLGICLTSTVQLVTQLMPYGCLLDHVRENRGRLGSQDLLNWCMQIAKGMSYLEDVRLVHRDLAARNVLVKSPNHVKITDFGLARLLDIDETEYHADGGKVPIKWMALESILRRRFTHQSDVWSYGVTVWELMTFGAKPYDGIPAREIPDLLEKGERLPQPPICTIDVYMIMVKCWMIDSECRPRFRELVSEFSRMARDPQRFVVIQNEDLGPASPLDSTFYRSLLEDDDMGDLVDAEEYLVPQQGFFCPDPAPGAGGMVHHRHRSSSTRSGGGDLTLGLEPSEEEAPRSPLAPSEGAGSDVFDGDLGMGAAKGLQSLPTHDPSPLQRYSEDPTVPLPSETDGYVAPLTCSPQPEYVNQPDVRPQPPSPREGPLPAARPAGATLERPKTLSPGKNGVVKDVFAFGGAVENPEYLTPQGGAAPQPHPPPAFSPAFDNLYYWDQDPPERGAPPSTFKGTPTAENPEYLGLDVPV
T1 sequence (P04626 with tags, fused parts or gaps INS775YVMA): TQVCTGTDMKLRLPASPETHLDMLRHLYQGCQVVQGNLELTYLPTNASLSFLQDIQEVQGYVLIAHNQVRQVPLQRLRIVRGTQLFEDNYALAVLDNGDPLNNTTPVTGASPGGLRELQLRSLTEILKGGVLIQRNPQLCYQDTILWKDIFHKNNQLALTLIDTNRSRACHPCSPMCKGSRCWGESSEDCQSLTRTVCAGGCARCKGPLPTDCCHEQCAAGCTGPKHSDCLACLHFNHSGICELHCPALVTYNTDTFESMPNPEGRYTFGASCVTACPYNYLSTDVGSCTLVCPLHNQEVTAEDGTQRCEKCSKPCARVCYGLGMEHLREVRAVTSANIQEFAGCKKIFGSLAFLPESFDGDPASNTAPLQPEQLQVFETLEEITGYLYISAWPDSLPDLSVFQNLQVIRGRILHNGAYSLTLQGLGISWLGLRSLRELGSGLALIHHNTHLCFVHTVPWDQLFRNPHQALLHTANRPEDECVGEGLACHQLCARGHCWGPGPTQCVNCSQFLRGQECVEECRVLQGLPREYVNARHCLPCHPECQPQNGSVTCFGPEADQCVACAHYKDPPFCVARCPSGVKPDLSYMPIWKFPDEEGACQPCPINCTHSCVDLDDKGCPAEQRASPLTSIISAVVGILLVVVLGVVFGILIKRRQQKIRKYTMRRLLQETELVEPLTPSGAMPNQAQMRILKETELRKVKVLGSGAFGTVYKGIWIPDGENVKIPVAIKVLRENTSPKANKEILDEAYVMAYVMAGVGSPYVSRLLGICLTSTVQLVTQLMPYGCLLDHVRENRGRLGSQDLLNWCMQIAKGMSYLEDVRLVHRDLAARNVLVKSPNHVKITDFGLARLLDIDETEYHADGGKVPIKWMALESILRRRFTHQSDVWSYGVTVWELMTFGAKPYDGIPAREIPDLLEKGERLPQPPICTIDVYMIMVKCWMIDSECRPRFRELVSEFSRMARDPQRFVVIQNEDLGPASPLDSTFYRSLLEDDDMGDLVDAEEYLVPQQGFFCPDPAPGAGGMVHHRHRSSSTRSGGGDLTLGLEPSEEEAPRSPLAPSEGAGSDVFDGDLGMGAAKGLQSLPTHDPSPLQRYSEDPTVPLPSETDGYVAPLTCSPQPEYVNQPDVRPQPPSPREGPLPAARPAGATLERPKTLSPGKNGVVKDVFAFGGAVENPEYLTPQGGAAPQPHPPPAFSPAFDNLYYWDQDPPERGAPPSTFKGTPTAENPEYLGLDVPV
Sequence of EGFR T790ML858R (P00533 25-1210 T790M/L858R): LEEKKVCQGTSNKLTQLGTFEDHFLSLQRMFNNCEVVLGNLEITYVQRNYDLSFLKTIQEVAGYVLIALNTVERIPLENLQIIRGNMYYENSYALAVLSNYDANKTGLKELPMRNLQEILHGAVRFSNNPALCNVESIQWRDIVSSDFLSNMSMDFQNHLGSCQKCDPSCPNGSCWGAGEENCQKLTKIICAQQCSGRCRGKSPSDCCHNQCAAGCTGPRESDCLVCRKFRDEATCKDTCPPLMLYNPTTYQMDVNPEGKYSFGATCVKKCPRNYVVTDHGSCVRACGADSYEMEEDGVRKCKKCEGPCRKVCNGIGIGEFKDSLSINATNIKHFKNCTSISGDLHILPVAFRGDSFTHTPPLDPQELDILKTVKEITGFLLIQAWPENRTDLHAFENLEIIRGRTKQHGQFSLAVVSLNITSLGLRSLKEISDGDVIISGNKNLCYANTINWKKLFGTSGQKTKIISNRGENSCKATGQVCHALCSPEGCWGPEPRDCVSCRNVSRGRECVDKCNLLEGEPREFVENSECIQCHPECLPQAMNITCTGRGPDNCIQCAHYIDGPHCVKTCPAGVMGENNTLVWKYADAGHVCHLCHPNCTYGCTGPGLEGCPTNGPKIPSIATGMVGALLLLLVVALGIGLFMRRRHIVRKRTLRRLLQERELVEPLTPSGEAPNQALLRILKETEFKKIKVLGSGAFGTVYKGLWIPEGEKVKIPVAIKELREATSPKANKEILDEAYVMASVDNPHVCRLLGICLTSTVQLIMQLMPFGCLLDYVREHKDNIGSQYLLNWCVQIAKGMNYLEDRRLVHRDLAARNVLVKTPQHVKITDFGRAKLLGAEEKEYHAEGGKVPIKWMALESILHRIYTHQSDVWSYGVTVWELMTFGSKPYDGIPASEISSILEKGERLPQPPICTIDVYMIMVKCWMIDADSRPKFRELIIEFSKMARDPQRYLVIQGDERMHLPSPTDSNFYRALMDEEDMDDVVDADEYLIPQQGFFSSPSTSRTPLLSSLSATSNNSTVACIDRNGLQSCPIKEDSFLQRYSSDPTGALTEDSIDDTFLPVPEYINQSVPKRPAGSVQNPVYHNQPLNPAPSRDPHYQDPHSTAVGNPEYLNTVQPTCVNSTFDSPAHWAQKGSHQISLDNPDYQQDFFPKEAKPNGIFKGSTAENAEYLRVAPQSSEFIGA

The term IC50 denotes the point on the concentration scale where inhibition reaches its midpoint. With `C=CC(=O)NCc1cccc(-c2c(-c3ccc(N4CCN(C)CC4)cc3)[nH]c3ncc(C(=O)OC(C)C)cc23)c1` [Example 203, isopropyl 3-(3-(acrylamidomethyl)phenyl)-2-(4-(4-methylpiperazin-1-yl)phenyl)-1H-pyrrolo[2,3-b]pyridine-5-carboxylate 2,2,2-trifluoroacetate], the IC50 against HER2 INS YVMA is 1000 to 10000 nM; on EGFR wt, 100 to 500 nM; on EGFR T790ML858R, 500 to 1000 nM; in the assay on A431 it was 1000 to 100000 nM; in the assay with H1975, 1000 to 100000 nM. The GI50 in assay [1] and in assay [2] was 1000 to 10000 nM in each case.

For `C=CC(=O)Nc1cc(-c2c(-c3ccnc(N4CCOCC4)c3)[nH]c3ncc(C(=O)OC(C)C)cc23)ccc1C` [Example 166, isopropyl 3-(3-acrylamido-4-methylphenyl)-2-(2-morpholinopyridin-4-yl)-1H-pyrrolo[2,3-b]pyridine-5-carboxylate], the IC50 on HER2 INS YVMA is 500 to 1000 nM; against EGFR wt, at most 100 nM; against EGFR T790ML858R, 100 to 500 nM; with A431, 1000 to 100000 nM; with H1975 it was 1000 to 100000 nM. For the same molecule, the GI50 in assay [1] and in assay [2] was 1000 to 10000 nM each time.

On to `C=CC(=O)Nc1cc(-c2c(-c3ccc(N4CCN(C)CC4)cc3)[nH]c3ncc(OC(F)(F)F)cc23)ccc1C` [Example 188, N-(2-methyl-5-(2-(4-(4-methylpiperazin-1-yl)phenyl)-5-(trifluoromethoxy)-1H-pyrrolo[2,3-b]pyridin-3-yl)phenyl)acrylamide 2,2,2-trifluoroacetate], for which the IC50 against HER2 INS YVMA is at most 100 nM; at EGFR wt, at most 100 nM; against EGFR T790ML858R, at most 100 nM; in the assay with A431 it was 1000 to 100000 nM; in the assay on H1975, 100 to 500 nM. In addition, the GI50 in assay [1] and in assay [2] was 100 to 500 nM each time.

As to `C=CC(=O)Nc1cc(-c2c(-c3cccc(OCCCN(C)C)c3)[nH]c3ncc(C(=O)OC(C)C)cc23)ccc1C` [Example 183, isopropyl 3-(3-acrylamido-4-methylphenyl)-2-(3-(3-(dimethylamino)propoxy)phenyl)-1H-pyrrolo[2,3-b]pyridine-5-carboxylate], the IC50 against HER2 INS YVMA is at most 100 nM; at EGFR wt, at most 100 nM; on EGFR T790ML858R, at most 100 nM; in the assay with A431, 1000 to 100000 nM; with H1975 it was 100 to 500 nM. Also, the GI50 in assay [1] and in assay [2] was 100 to 500 nM each time.

In the case of `C=CC(=O)Nc1cc(-c2c(-c3ccc(N4CCN(C)CC4)cc3)[nH]c3ncc(C(=O)OC(C)C)cc23)c(C)cc1C` [Example 202, isoproyl 3-(5-acrylamido-2,4-dimethylphenyl)-2-(4-(4-methylpiperazin-1-yl)phenyl)-1H-pyrrolo[2,3-b]pyridine-5-carboxylate 2,2,2-trifluoroacetate], the IC50 is 1000 to 10000 nM on HER2 INS YVMA; at most 100 nM against EGFR wt; 100 to 500 nM at EGFR T790ML858R; over 10000 nM in the assay with A431; 1000 to 100000 nM in the assay on H1975. The GI50 in assay [1] and in assay [2] was 1000 to 10000 nM throughout.

Turning to `C=CC(=O)Nc1cc(-c2c(-c3ccc(N4CCN(C)CC4)cc3)[nH]c3ncc(C(=O)OC4CCCCC4)cc23)ccc1C` [Example 137, cyclohexyl 3-(3-acrylamido-4-methylphenyl)-2-(4-(4-methylpiperazin-1-yl)phenyl)-1H-pyrrolo[2,3-b]pyridine-5-carboxylate], the IC50 was 100 to 500 nM against HER2 INS YVMA; at most 100 nM against EGFR wt; at most 100 nM on EGFR T790ML858R; 1000 to 100000 nM with A431; 100 to 500 nM in the assay with H1975. The GI50 in assay [1] and in assay [2] was 500 to 1000 nM throughout.

On to `C=CC(=O)Nc1cc(-c2c(-c3ccc(N4CCN(C)CC4)cc3)[nH]c3ncc(CC)cc23)ccc1C` [Example 191, N-(5-(5-ethyl-2-(4-(4-methylpiperazin-1-yl)phenyl)-1H-pyrrolo[2,3-b]pyridin-3-yl)-2-methylphenyl)acrylamide 2,2,2-trifluoroacetate], for which the IC50 at HER2 INS YVMA is at most 100 nM; against EGFR wt, at most 100 nM; against EGFR T790ML858R, at most 100 nM; in the assay on A431, 1000 to 100000 nM; in the assay with H1975, at most 100 nM. The GI50 in assay [1] and in assay [2] was 100 to 500 nM each time.

With `C=CC(=O)N1CCOc2ccc(-c3c(-c4cccc(OCCN5CCCC5)c4)[nH]c4nccc(Cl)c34)cc21` [Example 103, 1-(6-(4-chloro-2-(3-(2-(pyrrolidin-1-yl)ethoxy)phenyl)-1H-pyrrolo[2,3-b]pyridin-3-yl)-2H-benzo[b][1,4]oxazin-4(3H)-yl)prop-2-en-1-one], the 50% inhibitory concentration (IC50) on HER2 INS YVMA is at most 100 nM; at EGFR wt, at most 100 nM; against EGFR T790ML858R it was at most 100 nM; in the assay on A431, 500 to 1000 nM; in the assay with H1975 it was 100 to 500 nM. The GI50 in assay [1] and in assay [2] was 100 to 500 nM throughout.

With `C=CC(=O)Nc1cc(-c2c(-c3ccc(N4CCN(C)CC4)cc3)[nH]c3ncc(C(=O)NCc4ccc(NC(C)=O)cc4)cc23)ccc1C` [Example 132, N-(4-acetamidobenzyl)-3-(3-acrylamido-4-methylphenyl)-2-(4-(4-methylpiperazin-1-yl)phenyl)-1H-pyrrolo[2,3-b]pyridine-5-carboxamide], the IC50 at HER2 INS YVMA was 500 to 1000 nM; on EGFR wt it was at most 100 nM; against EGFR T790ML858R it was 100 to 500 nM; with A431, over 10000 nM; in the assay on H1975 it was over 10000 nM. Besides, the GI50 in assay [1] and in assay [2] was over 10000 nM throughout.

On to `C=CC(=O)Nc1cc(-c2c(-c3cnc(N4CCN(C)CC4)nc3)[nH]c3ncc(C(=O)OC(C)C)cc23)ccc1C` [Example 175, isopropyl 3-(3-acrylamido-4-methylphenyl)-2-(2-(4-methylpiperazin-1-yl)pyrimidin-5-yl)-1H-pyrrolo[2,3-b]pyridine-5-carboxylate], for which the IC50 was 100 to 500 nM at HER2 INS YVMA; at most 100 nM at EGFR wt; 100 to 500 nM against EGFR T790ML858R; 1000 to 100000 nM with A431; 1000 to 100000 nM in the assay with H1975. In addition, the GI50 in assay [1] and in assay [2] was 1000 to 10000 nM throughout.

These data come from patent US20220370440A1 (Lead Discovery Center GmbH, priority 2018, published 2022).
